Common to all, as to format: cell-based
Test [1] has as its system MCF-7. Put plainly: MTT survival assay, breast cancer cells MCF-7. The conditions noted are these: Homo sapiens, MCF7, estrogen-dependent breast cancer cells, 48 hours. From the text: (§1) Therefore Antroquinonol B and Antroquinonol C can be used in inhibiting cancer cell growth of breast cancer, lung cancer, hepatic cancer, and prostate cancer, which can further be applied in cancer treatment of breast cancer, lung cancer, hepatic cancer, prostate cancer and the like. The details of the examples are described as follows: The NCI anti-cancer drug screen model was adopted to test the anti-cancer effect of the isolated compounds from example 1 in the present invention. The isolated Antroquinonol B and Antroquinonol C from example 1 were added into the culture media of human breast-cancer cells, MCF-7 or MDA-MB-231, to test for tumor cell survival. This survival assay was carried out with the widely known MTT (3-[4,5-dimethylthiazol-2-yl]2,5-diphenyltetrazolium bromide) assay. MCF-7 cell line is originated from primary breast cancer cells (early stage), sensitive to estrogen and therefore is estrogen-dependent, while MDA-MB-231 is insensitive to estrogen and therefore is estrogen-independent, which is a difficult tumor with a low survival rate. MTT assay is commonly used to determine cell proliferation, percent of viable cells, and cytotoxicity. […] The plates were read on an ELISA reader at wavelength of 570 nm to determine the survival rates.
In general terms: Formazan colour is commonly taken as a measure of viable cells.

The subject of test [2] is MDA-MB-231. Put plainly: MTT survival assay, breast cancer cells MDA-MB-231. Particulars: Homo sapiens, estrogen-independent breast cancer cells, 48 hours.
From the text: as §1

Test [3] has as its system A549. Put plainly: MTT survival assay, lung cancer cells A549. The conditions noted are these: Homo sapiens, 48 hours. From the text:
Therefore Antroquinonol B and Antroquinonol C can be used in inhibiting cancer cell growth of breast cancer, lung cancer, hepatic cancer, and prostate cancer, which can further be applied in cancer treatment of breast cancer, lung cancer, hepatic cancer, prostate cancer and the like. The details of the examples are described as follows: MTT assay is commonly used to determine cell proliferation, percent of viable cells, and cytotoxicity. 3-[4,5-dimethylthiazol-2-yl]2,5-diphenyltetrazolium bromide (MTT) is a yellow dye, which can be absorbed by the living cells and be reduced to purplish blue formazan crystals by succinate tetrazolium reductase in mitochondria. Formazan formation can therefore be used to assess and determine the survival rate of cells. The NCI anti-cancer drug screen model was also employed to test the anti-lung cancer effect of the Antroquinonol B and Antroquinonol C in the present invention. The Antroquinonols isolated from example 1 were added into the culture media of human lung cancer cell A549 with the abovementioned MTT assay to analyze lung cancer cell survival rates. Human lung cancer cell A549 was obtained from the Bioresources Collection and Research Center (BCRC) of the Food Industry Research and Development Institute with an accession number of BCRC 60074. […] The plates were read on an ELISA reader at wavelength of 570 nm to determine the survival rates.

Test [4] concerns Hep3B. Put plainly: MTT survival assay, hepatic cancer cells Hep 3B. The conditions noted are these: Homo sapiens, 48 hours. From the text: (§2) Therefore Antroquinonol B and Antroquinonol C can be used in inhibiting cancer cell growth of breast cancer, lung cancer, hepatic cancer, and prostate cancer, which can further be applied in cancer treatment of breast cancer, lung cancer, hepatic cancer, prostate cancer and the like. The details of the examples are described as follows: MTT assay is commonly used to determine cell proliferation, percent of viable cells, and cytotoxicity. 3-[4,5-dimethylthiazol-2-yl]2,5-diphenyltetrazolium bromide (MTT) is a yellow dye, which can be absorbed by the living cells and be reduced to purplish blue formazan crystals by succinate tetrazolium reductase in mitochondria. Formazan formation can therefore be used to assess and determine the survival rate of cells. The NCI anti-cancer drug screen model was employed to test the anti-cancer effect of the Antroquinonol B and Antroquinono C in the present invention. The Antroquinonos isolated from example 1 were added into the culture media of human hepatic-cancer cells, Hep 3B or Hep G2, for tumor cell survival assay. Hepatic-cancer cells Hep 3B (BCRC 60434) and Hep G2 (BCRC 60025), were obtained from the Bioresources Collection and Research Center (BCRC) of the Food Industry Research and Development Institute. […] The plates were read on an ELISA reader at wavelength of 570 nm to determine the survival rates.

Test [5] deals with HepG2. Put plainly: MTT survival assay, hepatic cancer cells Hep G2. The conditions noted are these: Homo sapiens, 48 hours.
From the text: as §2

In test [6] the test system is LNCaP. Description: MTT survival assay, prostate cancer cells LNCaP. Particulars: Homo sapiens, androgen-dependent prostate cancer cells, 48 hours. The source says:
(§3) Therefore Antroquinonol B and Antroquinonol C can be used in inhibiting cancer cell growth of breast cancer, lung cancer, hepatic cancer, and prostate cancer, which can further be applied in cancer treatment of breast cancer, lung cancer, hepatic cancer, prostate cancer and the like. The details of the examples are described as follows:
(§4) MTT assay is commonly used to determine cell proliferation, percent of viable cells, and cytotoxicity. 3-[4,5-dimethylthiazol-2-yl]2,5-diphenyltetrazolium bromide (MTT) is a yellow dye, which can be absorbed by the living cells and be reduced to purplish blue formazan crystals by succinate tetrazolium reductase in mitochondria. Formazan formation can therefore be used to assess and determine the survival rate of cells.
(§5) The NCI anti-cancer drug screen model was also employed to test the anti-cancer effect of the Antroquinonols in the present invention. Antroquinonol B and Antroquinonol C isolated from example 2 were added into the culture media of human prostate cancer cells, LNCaP or DU-145, and prostate cancer cell survival rates were analyzed with the abovementioned MTT assay. […]
(§6) The human prostate-cancer cells, LNCaP and DU-145, were cultivated in media containing fetal calf serum for 24 hours. […] The plates were read on an ELISA reader at wavelength of 570 nm to determine the survival rates.

Test [7] has as its system DU-145. Description: MTT survival assay, prostate cancer cells DU-145. Particulars: Homo sapiens, androgen-independent prostate cancer cells, 48 hours.
From the text: as §3, §4, §5, §6

≈ marks a conversion by molar mass, not a printed value.

In general, IC50 refers to the concentration that inhibits the measured activity by half. For `COC1=C(OC)[C@H](O)[C@H](C/C=C(\C)CC/C=C(/C)C/C=C/C(C)(C)OC)[C@@H](C)C1=O` [Antroquinonol C], the IC50 was 1.17 µg/mL (≈ 2.78 µM) in test [1]; 21.9 µg/mL (≈ 52.1 µM) in test [2]; 8.21 µg/mL (≈ 19.5 µM) in test [3]; 1.32 µg/mL (≈ 3.14 µM) in test [4]; 5.12 µg/mL (≈ 12.2 µM) in test [5]; 8.72 µg/mL (≈ 20.7 µM) in test [6]. Half-maximal inhibition in test [7] (IC50) was put at 12.2 µg/mL (≈ 29 µM).
For the compound `COC1=C(OC)[C@H](O)[C@H](C/C=C(\C)CC/C=C(/C)C/C=C/C(C)(C)O)[C@@H](C)C1=O` [Antroquinonol B], the IC50 was determined as 1.94 µg/mL (≈ 4.77 µM) in test [1]; 8.72 µg/mL (≈ 21.4 µM) in test [2]; 11.9 µg/mL (≈ 29.3 µM) in test [3]; 1.21 µg/mL (≈ 2.98 µM) in test [4]; 3.32 µg/mL (≈ 8.17 µM) in test [5]; 5.67 µg/mL (≈ 13.9 µM) in test [6]. The same compound yielded an IC50 in test [7] of 10.1 µg/mL (≈ 24.9 µM).

The record behind these values is patent US7385088B1, “Compounds from Antrodia camphorata” (Golden Biotechnology Corporation, priority 2007, dated 2008).
